The record followed here is EP4803511A1, “SMALL MOLECULE COMPOUND HAVING SULFONIC ACID OR SULFINIC ACID LACTONE STRUCTURE, COMPOSITION AND USE THEREOF” (Hangzhou Phecdamed Co., Ltd., priority 2023, dated 2025).

Data set [1] has as its system HaCaT cells. The experiment in a line: ROS content / ROS scavenging rate in HaCaT after UVB radiation (DCFH-DA). Format: cell-based, human. The following applies: content 0.0025%; HaCaT cells after UVB radiation. The source says: Oxidative reactions such as respiration and metabolism in organisms generate reactive free radicals. Under normal bodily conditions, free radicals have a stable scavenging system, so that the free radical content of the body is kept at a relatively low concentration. Oxidative stress (OS) refers to an imbalance between oxidation and antioxidation in the body due to endogenous and/or exogenous stimuli, resulting in excessive free radical production. Excessive free radicals produce a series of negative effects in the body, including oxidative damage to biomolecules and further causing cell death and tissue damage, etc. In organisms, almost all ROS, except for trace amounts utilized by the body, should be promptly scavenged. Medium Wave Erythema Effect Ultraviolet (UVB) (280-319 nm) radiation damage is the most important factor leading to photoaging of the skin, primarily damaging keratinocytes (HaCaT), specifically manifested as the accumulation of photoproducts, increased ROS, and exacerbated oxidative damage, etc. Over long periods of evolution, organisms have developed a complete antioxidant system, maintaining a dynamic balance between the production and elimination of free radicals. This is an adaptive mechanism of organisms, and the main members include antioxidant enzymes, antioxidants, and proteins that separate transition metals, all of which can specifically limit oxidative damage to the body. Therefore, the antioxidant efficacy of a test compound can be evaluated by detecting the ROS scavenging rate in keratinocytes after UVB radiation.
• 1) Cell inoculation: HaCaT cells were inoculated into a 96-well plate at 2 × 10^4/well, cultured in an incubator (37 °C, 5% CO2) for 12 hrs, and a control group (120 mJ/cm^2 + vehicle control), a low concentration group (120 mJ/cm^2 + low concentration compound), a medium concentration group (120 mJ/cm^2 + medium concentration compound), and a high concentration group (120 mJ/cm^2 + high concentration compound) were respectively provided. • 2) UVB modeling: The HaCaT cells were washed 3 times with D'Hanks before UVB radiation, 50 µL of D'Hanks was added into the wells, to make the cells to be immersed, and the control group was coated with tinfoil and placed in the dark. For the test groups, UVB modeling was performed on the group requiring radiation, respectively. • 3) Administration: DMEM medium containing different concentrations of compound were added to each test group for continued culture for 24 hrs. • 4) Transferring the ROS fluorescent probe: DCFH-DA was Diluted to a final concentration of 10 µmol/L using PBS at a dilution ratio of 1:1000. The culture medium in all wells except the bare cell wells was discarded. After washing three times with PBS, 200 µL of DCFH-DA working solution was added to each well, then incubated in a CO2 incubator for 30 min, and after incubation, the cells in each well were washed with PBS for 3 times. • 5) Fluorescence analysis. The 96-well plate to be tested was placed on the detection stage of the fluorescence microplate reader, with the […] set to 525 nm, the excitation light wavelength set to 488 nm, and the reading was analyzed.
ROS scavenging rate (%) = (S(Modelcontrolgroup)−S(Samplegroup))/(S(Modelcontrolgroup)) × 100% [formula] wherein S is fluorescence intensity.

Data set [2] is described as follows: Kinetic solubility in aqueous buffer. Format: physicochemical. The following applies: 2 hrs at 25 °C. Here is the method:
Experimental Methods: 30 µL of the 10 mM DMSO stock solution of the compound to be test was placed in a solubility sample plate (duplicate), 970 µL of aqueous buffer solution was added to the plate, and the plate was sealed with a sealing membrane and shaken at 1100 rpm for 2 hrs at 25 °C. The sample in the solubility plate was transferred to a filter plate, and filtered to obtain a filtrate. 10 µL of the filtrate was transferred into 980 µL of methanol along with 10 µL of DMSO, and then the solution was diluted 10-fold with methanol:water (1:1), and the resulting sample was analyzed by LC-MS/MS to obtain Area (filtered). Separately, 10 mM of the DMSO stock solution of the compound to be test was diluted to 300 µM with DMSO. 10 µL of this 300 µM DMSO solution and 10 µL of aqueous buffer solution were added into 980 µL of methanol, and then diluted 10-fold with methanol:water (1:1), and the resulting sample was analyzed by LC-MS/MS to obtain Area (std). The kinetic solubility was calculated according to the following formula: Solubility(μM) = (Areafiltered × DFfiltered)/(Areastd × DFstd) × [std] × DFstd [formula] wherein DF is the dilution factor.

Converted amounts (≈) assume the structure as drawn.

Broadly, the kinetic solubility is solubility judged after dilution from a stock solution rather than from solid.

On to `CN(C)C(=O)Oc1ccc2c(c1)OS(=O)(=O)c1cc(OC(=O)N(C)C)ccc1-2` [Compound I-13], for which the ROS scavenging rate in data set [1] amounted to 35%.

In data set [1], `CC(C)C(=O)Oc1ccc2c(c1)OS(=O)(=O)c1cc(OC(=O)C(C)C)ccc1-2` [Compound I-14] returned an ROS scavenging rate of 29%.

Compound `O=c1oc2cc(O)ccc2c2ccc(O)cc12` [Urolithin A, reference compound] registered a kinetic solubility at 2 h in data set [2] of 98.8 µM (≈ 22.5 µg/mL).
